Test results as given in the supplement of paper PMC4862054.

Columns and labels:
Details in all cases: incubation time: 72 h
BT-474 [1] = experiment: normalised response (% of control), CellTox Green; higher = less cell death (100 = DMSO, 0 = benzethonium chloride kill control)
In short: (§1)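 Values are normalised signals, each belonging to one concentration of the series. Breast cancer cells (20 µl suspension) were seeded into 384-well plates with compound at 5 concentrations in 10-fold steps over a compound-specific 10,000-fold range and incubated 72 h. Readouts were CellTox Green fluorescence (485/520 nm), then CellTiter-Glo luminescence after 10 min at room temperature, with each plate set to 0.1 % DMSO as 100 and a positive kill control as 0.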

BT-549 [2] = experiment: as above
In short: as §1

CAL-120 [3] = experiment: as above
In short: as §1

CAL-148 [4] = experiment: as above
In short: as §1

CAL-51 [5] = experiment: as above
In short: as §1

CAL-85-1 [6] = experiment: as above
In short: as §1

DU-4475 [7] = experiment: as above
In short: as §1

HCC1143 [8] = experiment: as above
In short: as §1

HCC1599 [9] = experiment: as above
In short: as §1

HCC1937 [10] = experiment: as above
In short: as §1

HDQ-P1 [11] = experiment: as above
In short: as §1

Hs578T [12] = experiment: as above
In short: as §1

MCF-10A [13] = experiment: as above
In short: as §1

MDA-MB-231 [14] = experiment: as above
In short: as §1

MDA-MB-436 [15] = experiment: as above
In short: as §1

MDA-MB-453 [16] = experiment: as above
In short: as §1

MDA-MB-468 [17] = experiment: as above
In short: as §1

MFM-223 [18] = experiment: as above
In short: as §1

BT-474 [19] = experiment: normalised response (% of control), CellTiter-Glo; higher = more viable cells (100 = DMSO, 0 = benzethonium chloride kill control)
In short: as §1

BT-549 [20] = experiment: as above
In short: as §1

CAL-120 [21] = experiment: as above
In short: as §1

CAL-148 [22] = experiment: as above
In short: as §1

CAL-51 [23] = experiment: as above
In short: as §1

CAL-85-1 [24] = experiment: as above
In short: as §1

DU-4475 [25] = experiment: as above
In short: as §1

HCC1143 [26] = experiment: as above
In short: as §1

HCC1599 [27] = experiment: as above
In short: as §1

HCC1937 [28] = experiment: as above
In short: as §1

HDQ-P1 [29] = experiment: as above
In short: as §1

Hs578T [30] = experiment: as above
In short: as §1

MCF-10A [31] = experiment: as above
In short: as §1

MDA-MB-231 [32] = experiment: as above
In short: as §1

MDA-MB-436 [33] = experiment: as above
In short: as §1

MDA-MB-453 [34] = experiment: as above
In short: as §1

MDA-MB-468 [35] = experiment: as above
In short: as §1

MFM-223 [36] = experiment: as above
In short: as §1

SK-BR-3 = experiment: as above
In short: as §1

Structure (SMILES)	normalised response (BT-474 [1])	normalised response (BT-549 [2])	normalised response (CAL-120 [3])	normalised response (CAL-148 [4])	normalised response (CAL-51 [5])	normalised response (CAL-85-1 [6])	normalised response (DU-4475 [7])	normalised response (HCC1143 [8])	normalised response (HCC1599 [9])	normalised response (HCC1937 [10])	normalised response (HDQ-P1 [11])	normalised response (Hs578T [12])	normalised response (MCF-10A [13])	normalised response (MDA-MB-231 [14])	normalised response (MDA-MB-436 [15])	normalised response (MDA-MB-453 [16])	normalised response (MDA-MB-468 [17])	normalised response (MFM-223 [18])	normalised response (BT-474 [19])	normalised response (BT-549 [20])	normalised response (CAL-120 [21])	normalised response (CAL-148 [22])	normalised response (CAL-51 [23])	normalised response (CAL-85-1 [24])	normalised response (DU-4475 [25])	normalised response (HCC1143 [26])	normalised response (HCC1599 [27])	normalised response (HCC1937 [28])	normalised response (HDQ-P1 [29])	normalised response (Hs578T [30])	normalised response (MCF-10A [31])	normalised response (MDA-MB-231 [32])	normalised response (MDA-MB-436 [33])	normalised response (MDA-MB-453 [34])	normalised response (MDA-MB-468 [35])	normalised response (MFM-223 [36])	normalised response (SK-BR-3)
COC(=O)C[C@](O)(CCCC(C)(C)O)C(=O)O[C@@H]1C(OC)=C[C@]23CCCN2CCc2cc4c(cc2[C@H]13)OCO4 [Omacetaxine] (100 nM)	98.3%	103%	99.4%	83.4%	121%	10.6%	97.5%	72.7%	112%	124%	100%	38.3%	97.1%	92.3%	77.6%	110%	113%	48.9%	74.6%	18.8%	59%	40.9%	19.9%	6.28%	4.3%	44.4%	24.4%	41.1%	31%	28.2%	61.5%	65%	20%	56.4%	15.3%	55.4%	44.9%
CC(=O)O[C@H]1C(=O)[C@@]2(C)[C@H]([C@H](OC(=O)c3ccccc3)[C@]3(O)C[C@H](OC(=O)[C@H](O)[C@@H](NC(=O)c4ccccc4)c4ccccc4)C(C)=C1C3(C)C)[C@]1(OC(C)=O)CO[C@@H]1C[C@@H]2O [Paclitaxel] (10 nM)	74.6%	72.5%	89.9%	39.4%	19.9%	20.9%	97.6%	88.4%	91.5%	86.7%	87.9%	34.1%	78.9%	41%	-40.2%	92.9%	41.3%	59.4%	60.3%	34%	70.1%	42.7%	52.7%	31%	89%	42.3%	80.5%	68.2%	69.1%	43.3%	52.6%	62.9%	43%	80.2%	28.7%	61.6%	16.9%
O=C(c1ccc(OCCN2CCCCC2)cc1)c1c(-c2ccc(O)cc2)sc2cc(O)ccc12 [Raloxifene] (100 nM)	104%	92.5%	98.8%	101%	97.2%	98.3%	103%	99.7%	92.4%	108%	90.1%	94.3%	93.2%	98.8%	107%	107%	102%	91.7%	101%	98.3%	99.1%	107%	87.8%	104%	100%	109%	100%	104%	106%	106%	103%	105%	99.9%	99.7%	98.7%	104%	104%
COc1cc(Nc2ncc(F)c(Nc3ccc4c(n3)NC(=O)C(C)(C)O4)n2)cc(OC)c1OC [Tamatinib] (100 nM)	101%	94.5%	103%	73.6%	115%	113%	104%	90.7%	99.2%	93.6%	107%	112%	107%	105%	104%	109%	83.2%	91.3%	101%	98.9%	96.2%	112%	104%	96.7%	105%	105%	123%	103%	97.9%	102%	104%	108%	99%	108%	93.8%	110%	111%
C[C@@H]1CCN(C(=O)CC#N)C[C@@H]1N(C)c1ncnc2[nH]ccc12 [Tofacitinib] (50 nM)	103%	94.2%	99.7%	90.6%	113%	99.7%	102%	104%	116%	123%	114%	93.4%	105%	104%	97.8%	103%	127%	107%	102%	104%	99.8%	114%	88.1%	109%	106%	106%	105%	96.5%	104%	109%	101%	104%	98.7%	102%	110%	110%	104%
FC(F)c1nc2ccccc2n1-c1nc(N2CCOCC2)nc(N2CCOCC2)n1 [ZSTK474] (100 nM)	102%	111%	102%	100%	102%	108%	105%	115%	101%	64.3%	101%	102%	85%	110%	101%	85.6%	97.3%	102%	85.3%	80.4%	101%	94.7%	92.6%	99%	97%	99.9%	98%	87.7%	83.4%	92.4%	93%	91.1%	88.5%	86.8%	96.9%	97%	72.9%
